In ChEMBL document CHEMBL1201862, “PubChem BioAssay data set” (2004) one finds IC50 data, which are given here for two compounds.

The structures appear in SMILES notation. The source made the active and inactive calls. No stated cut-off is given here; in the data, actives have a measured IC50 and inactives only a lower limit.

In this assay the target is Envelope glycoprotein gp160 (Human immunodeficiency virus 1, UniProt Q6QLK5). The assay is described as follows: inhibitors of HIV fusion peptide binding, primary screen, biochemical, uHTS, fluorescence dequenching (AID 1986).
Sequence of Envelope glycoprotein gp160 (Q6QLK5 whole entry, the tested form may be a part): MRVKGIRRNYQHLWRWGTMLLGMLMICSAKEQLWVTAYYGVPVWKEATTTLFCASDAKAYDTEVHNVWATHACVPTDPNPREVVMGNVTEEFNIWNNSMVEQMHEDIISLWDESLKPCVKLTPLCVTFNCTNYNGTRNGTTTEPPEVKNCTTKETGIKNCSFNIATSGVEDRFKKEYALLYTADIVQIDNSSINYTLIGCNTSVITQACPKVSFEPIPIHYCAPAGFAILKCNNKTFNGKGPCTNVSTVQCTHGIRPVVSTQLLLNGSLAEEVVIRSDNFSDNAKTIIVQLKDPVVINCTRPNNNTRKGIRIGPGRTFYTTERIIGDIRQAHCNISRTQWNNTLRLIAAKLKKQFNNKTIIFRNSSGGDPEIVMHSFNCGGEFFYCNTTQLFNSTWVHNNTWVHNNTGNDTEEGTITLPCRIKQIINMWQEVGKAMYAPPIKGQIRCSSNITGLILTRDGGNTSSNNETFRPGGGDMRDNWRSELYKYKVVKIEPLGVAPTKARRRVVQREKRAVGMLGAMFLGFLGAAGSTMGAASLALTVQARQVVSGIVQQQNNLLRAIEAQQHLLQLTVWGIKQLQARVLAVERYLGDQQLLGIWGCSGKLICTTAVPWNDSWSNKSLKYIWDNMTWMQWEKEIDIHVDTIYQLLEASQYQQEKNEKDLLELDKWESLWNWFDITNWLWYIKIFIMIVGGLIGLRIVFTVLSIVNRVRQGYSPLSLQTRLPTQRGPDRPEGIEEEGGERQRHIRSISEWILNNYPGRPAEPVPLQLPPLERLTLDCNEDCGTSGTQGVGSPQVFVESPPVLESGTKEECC

Usually IC50 stands for the concentration needed to halve the response being measured. In the case of `COC(=O)c1sc(-c2ccc(C(C)(C)C)cc2)cc1NC(=O)c1ccccc1C(=O)O`, the 50% inhibitory concentration (IC50) is 18.5 µM (active).
The figure for `COc1ccc(/C=C2/SC(=S)N(CC(=O)O)C2=O)cc1OCc1ccc(Cl)cc1` is 16.5 µM (active).
